The term EC50 denotes the concentration needed to bring the measured effect to its halfway point.

Assay [1] can be described thus: compounds raising TAG storage in Chlamydomonas – qHTS, Chlamydomonas reinhardtii, dose response (AID 1159536). Conditions: Chlamydomonas reinhardtii, Nile Red lipid fluorescence, 72 h; at 30 µM (top of the series). In general terms: Quantitative high-throughput screening tests each substance at several concentrations.
The test system of assay [2] is Chlamydomonas reinhardtii, Nile Red lipid fluorescence, 72 h. The assay is described as above.

The structures appear in SMILES notation. Records with an inconclusive call do not appear. Calls of active or inactive are those of the source. The rule behind the calls is not given here.

Take `Cc1cc(Cl)c(OCCn2ccnc2)c(Br)c1`: in assay [1], the fold change vs untreated, higher = more lipid is 5.38.
Same read-out and setting: to `CCN1CCN(C2CCC(C(C)(C)C)CC2)CC1` (stereo not drawn) belongs 2.66 (inactive); to `CC(=O)Nc1ccc(OCC(=O)Nc2cc(Cl)cc(Cl)c2)cc1`, 2.48 (inactive).
On the same count and under the same terms, under `Cc1ccc(Cn2cnc3c(cnn3-c3ccccc3)c2=O)c(C)c1` stands 3 (inactive); under `Cc1c(C(=O)Nc2ccccc2C(=O)NCc2ccccc2)cccc1[N+](=O)[O-]`, 2.77 (inactive); under `Cc1ccc(OCCCCN2CCCC2)c(C)c1`, 6.28.
The same measure, in the same setting: to `O=C(O)C1CCN(C(=O)c2ccc(F)cc2)CC1` belongs 1.24 (inactive); to `Cc1c(N/C=C/C(=O)c2cccs2)c(=O)n(-c2ccccc2)n1C`, 1.42 (inactive).
For the compound `COc1cccc(CN2CCN(C(=O)c3cc(OC)c(OC)c(OC)c3)CC2)c1OC`, the fold change vs untreated, higher = more lipid in assay [1] was 1.75 (inactive).
Same read-out and setting: under `Cc1ccc(CN2CCC(C(=O)NCc3ccccc3Cl)CC2)cc1` stands 15.2; under `COc1cc(-c2ccc(NC(=O)c3ccco3)c(OC)c2)ccc1NC(=O)c1ccco1`, 1.4 (inactive).
Still for that read-out and setting: under `COc1ccc(S(=O)(=O)N(CC(=O)NC(C)C)c2cc(C)cc(C)c2)cc1OC` stands 1.07 (inactive); under `C=CCNC(=O)C(C)N(c1ccc(OCC)cc1)S(C)(=O)=O` (stereo not drawn), 1.69 (inactive).
The same measure, in the same setting: under `O=C(Nc1ccccc1C(=O)NCc1ccccc1)c1ccc([N+](=O)[O-])cc1` stands 2.49 (inactive); under `CC(C)(C)c1ccc(OCCCCN2CCOCC2)cc1`, 3.88; under `Cc1cc(Br)ccc1OCC(=O)NCc1ccc2c(c1)OCO2`, 1.4 (inactive).
With `COc1ccccc1Cn1c(C(C)O)nc2ccccc21` (stereo not drawn), the fold change vs untreated, higher = more lipid in assay [1] was 0.95 (inactive).
Regarding `Cc1sc(NC(=O)c2cccs2)c(C(=O)O)c1C`, the fold change vs untreated, higher = more lipid in assay [1] is 1.38 (inactive).
Same read-out and setting: under `Cc1ccc(N2CCN(CCc3ccccc3)CC2)cc1` stands 8.09; under `O=C(NC1CCN(Cc2ccccc2)CC1)c1ccc(Cl)cc1Cl`, 12.2; under `CCC1CCCCN1C(=O)c1ccc(Cl)cc1[N+](=O)[O-]` (stereo not drawn), 1.87 (inactive).
On the same count and under the same terms, under `Fc1ccc(N2CCN(CCc3ccccc3)CC2)cc1` stands 9.42.
Take `COc1ccc(CN(C)C2CCCCC2)cc1`: the EC50 in assay [2] is 2790 nM.
Still for that read-out and setting: under `Clc1cc(Br)ccc1OCCCCN1CCOCC1` stands 1310 nM.
Same read-out and setting: to `c1ccc(CN2CCC(N3CCN(C4CC5CCC4C5)CC3)CC2)cc1` (stereo not drawn) belongs 9980 nM; to `CN1CCN(CC#CC=C(c2ccccc2)c2ccccc2)CC1`, 2570 nM (inactive).
Still for that read-out and setting: under `CC(C)NC(=O)c1ccccc1NC(=O)c1ccc(Cl)cc1` stands 590 nM (inactive); under `COc1ccc(CN(C)C2CCCCC2)cc1C`, 2690 nM.
Take `COc1ccc(CN2CCN(Cc3ccc([N+](=O)[O-])cc3)CC2)cc1OC`: in assay [2], the EC50 was 2490 nM.
Still for that read-out and setting: under `CC1CCCN(C(=O)COc2ccc(Cl)cc2)C1` (stereo not drawn) stands 1260 nM; under `CCOc1ccc(CN2CCN(c3ccccc3C)CC2)cc1`, 1300 nM.
`COc1cc(NC(=O)C(Cl)Cl)c(OC)cc1Cl`: the fold change vs untreated, higher = more lipid in assay [1] is 1.42 (inactive).
`Cc1ccc(OCCCCN2CCCC2)cc1C`: the EC50 in assay [2] was 5200 nM.
On to `CN(CCc1ccccc1)C1CCN(Cc2ccccc2)CC1`, for which the EC50 in assay [2] was 21.8 nM.
On the same count and under the same terms, under `CN1CCCN(Cc2cccc(Oc3ccccc3)c2)CC1` stands 10100 nM; under `Clc1ccccc1-c1nnc(-c2ccccc2)o1`, 2700 nM; under `Cc1ccc(S(=O)(=O)n2cccn2)cc1`, 12900 nM (inactive).
The same measure, in the same setting: under `C=CCc1cc(Cl)ccc1OCCN1CCN(C)CC1` stands 14100 nM.

The record behind these values is PubChem BioAssay AID1159536 (DiRusso Lab, Biochemistry Department, University of Nebraska, 2015).
